Assay results reported in patent publication US9364454B2, “Anti-inflammatory actions of neuroprotectin D1/protectin D1 and its natural stereoisomers” (The Brigham and Women's Hospital, Inc., priority 2005, dated 2016).
Entries after “also recorded” stand apart in the source; their conditions may differ.

Columns and labels:
FVB male mice = test: Acute inflammatory exudates: zymosan A murine peritonitis (leukocyte infiltration); format: in vivo, mouse; conditions: for anti-inflammatory potency in vivo, PMN infiltration (in words): dose range tested (FIG. 6), lavage at 2 h; for kind of joint anti-inflammatory action of PD1 and RvE1: 10 ng/mouse i.p. of either or both, 2 h; for activity on PMN infiltration at higher doses / dose dependence (in words): higher doses (10 ng, 100 ng)
Protocol: Peritonitis was carried out using 6-8 week-old FVB male mice (Charles River Laboratories) fed laboratory Rodent Diet 5001 (Purina Mills) that were anesthetized with isoflurane, and compounds to be tested were administered intraperitoneally. […] Each compound tested or vehicle alone was suspended in 1 μl ethanol and mixed in sterile saline (120 μl). After intraperitoneal injections (either 2 or 4 hours of acute inflammation), the mice were sacrificed in accordance with the Harvard Medical Area Standing Committee on Animals protocol no. 02570, and peritoneal lavages were collected rapidly and placed in an ice bath (4° C.) for enumeration, differential counts, and further analysis.

[1] = system: human PMN transmigration across endothelial cells; test: Human PMN transmigration across HMEC monolayers, LTB4-induced; format: cell-based; conditions: compound 15 min, LTB4 10^-8 M 90 min
Protocol: PMN were freshly isolated from whole blood obtained by venipuncture from healthy human donors (who denied taking medication for 2 weeks prior to donation; BWH protocol no. 88-02642) and anti-coagulated with acid citrate dextrose as in (40, 41). Briefly, plasma and mononuclear cells were removed by aspiration from the buffy coat after centrifugation (400 g; 20 min) at room temperature. Histopaque (density 1.077) was from Sigma-Aldrich (St. Louis, Mo.). RBCs were sedimented using 2% gelatin, and residual RBCs were removed by lysis in ice-cold NH4Cl buffer. The cell suspensions were >90% PMN as determined by light microscopic evaluation. PMN were suspended at 5×10^7 cells/ml in HBSS with 10 mM Hepes, pH 7.4, and without Ca^2+ or Mg^2+ (Sigma-Aldrich, St. Louis, Mo.). PMN were used within 2 hours of their isolation.
Human Microvascular Endothelial Cells (HMEC; a gift from Francisco Candal of the Centers for Disease Control, Atlanta, Ga.) were obtained as primary cultures. For preparation of experimental HMEC monolayers, confluent endothelial cells were grown on 0.33 cm^2 ring-supported polycarbonate filters (5 μm pore size; Costar Corp., Cambridge, Mass.) in the apical-to-basolateral direction. Cells were grown for ˜1 week prior to transmigration experiments.
Transmigration was conducted essentially as in ref. (41). PMN were incubated with either vehicle-containing buffer or compound for 15 minutes at 37° C. A chemotactic gradient was established by placing HMEC inserts that had been washed in HBSS with Ca^2+ and Mg^2+ (denoted +/+) in 10^−8M LTB4 in the lower chambers. Neutrophils (10^6 cells) were added to 50 μl HBSS +/+ in the upper chambers and cells were incubated at 37° C. for 90 min. Transmigrated PMN were quantified by assessing the PMN azurophilic marker myeloperoxidase and a calibration curve. PMN were lysed by the addition of Triton X-100 to a final concentration of 0.5%. The samples were acidified with citrate buffer (final concentration 100 mM, pH 4.2). An aliquot of each sample was added to an equal volume of ABTS solution (1 mM ABTS [2′-azino-bis(3-ethylbenzo-thiazoline-6-sulfonic acid)], 0.03% H2O2, 100 mM sodium citrate buffer, pH 4.2) in a 96-well plate. The resulting color was monitored using a plate reader at 405 nm and a calibration curve for cell number.

Compound: CC/C=C\C[C@H](O)\C=C/C=C/C=C/[C@@H](O)C/C=C\C/C=C\CCC(=O)O [Compound VI, 10S,17S-dihydroxy-docosa-4Z,7Z,11E,13E,15Z,19Z-hexaenoic-acid]
- rank order of potency (FVB male mice; 0.1 ng dose): Compound VI>>PD1>10S,17S-DT (the double dioxygenation product)>the Δ15-trans-PD1>>Compound V
- anti-inflammatory potency in vivo, PMN infiltration (in words) (FVB male mice): the most potent of these isomers in vivo
- anti-inflammatory potency in vivo, PMN infiltration (in words) (FVB male mice; listed as compound VI): carries bioactivity
- anti-inflammatory potency in vivo, PMN infiltration (in words) (FVB male mice; listed as isomer VI): ≧PD1

Compound: CC[C@@H](O)/C=C/C=C\C[C@@H](O)/C=C/C=C/C=C\[C@@H](O)CCCC(=O)O [RvE1, 5S,12R,18R-trihydroxy-6Z,8E,10E,14Z,16E-eicosapentaenoic acid, reference compound]
- kind of joint anti-inflammatory action of PD1 and RvE1 (FVB male mice): additive rather than synergistic
- kind of joint anti-inflammatory action of PD1 and RvE1 (FVB male mice; listed as resolvin E1): additive
- PMN infiltration, PD1 and RvE1 administered together (in words) (FVB male mice; 10 ng/mouse i.p., exudates at 2 h): reduced the infiltration of PMN

Compound: CC/C=C\C[C@H](O)/C=C/C=C\C=C\[C@H](O)C/C=C\C/C=C\CCC(=O)O [Compound IV, 10R,17S-dihydroxy-docosa-4Z,7Z,11E,13Z,15E,19Z-hexaenoic-acid]
- activity on PMN infiltration (in words) (FVB male mice; 1 ng/mouse dose): essentially equipotent
- activity on PMN infiltration at higher doses / dose dependence (in words) (FVB male mice): did not increase potency in a dose-dependent fashion

Compound: CC/C=C\C[C@H](O)C#C/C=C/C=C/[C@H](O)C/C=C\C/C=C\CCC(=O)O [15,16-dehydro-PD1]
- PMN infiltration (in words) (FVB male mice; 10 ng/mouse, 4 h after injection (FIG. 9)): retained activity in vivo; also recorded: slightly less potent than the native PD1; also recorded: reduced PMN infiltration; also recorded: Statistically different from *zymosan A-injected mice; also recorded: less potent
- recruitment of monocytes and lymphocytes to exudates (in words) (FVB male mice; peritonitis, differential counts): increased the non-phlogistic recruitment of monocytes and lymphocytes

Compound: CC/C=C\C[C@H](O)\C=C/C=C/C=C/[C@H](O)C/C=C\C/C=C\CCC(=O)OC [PD1 methyl ester]
- rank order of potency (FVB male mice; 1-10 ng dose): PD1≈PD1 methyl ester>>Δ15-trans PD1>10S,17S-diHDHA (isomer I)

Compound: CCC=CCC(O)C=CC=CC=CC(O)CC=CCC=CCCC(=O)OC (centres unmarked) [methyl ester of Compound VI]
- anti-inflammatory potency in vivo, PMN infiltration (in words) (FVB male mice): potent regulator of PMN infiltration

Compound: CC/C=C\C[C@@H](O)\C=C/C=C/C=C/[C@@H](O)C/C=C\C/C=C\CCC(=O)O [Compound V, 10S,17R,-dihydroxy-docosa-4Z,7Z,11E,13E,15Z,19Z-hexaenoic-acid]
- rank order of potency (FVB male mice; 0.1 ng dose): Compound VI>>PD1>10S,17S-DT (the double dioxygenation product)>the Δ15-trans-PD1>>Compound V
- anti-inflammatory potency in vivo, PMN infiltration (in words) (FVB male mice): essentially without activity
- anti-inflammatory potency in vivo, PMN infiltration (in words) (FVB male mice; listed as compound V): essentially inactive in vivo

Compound: CC/C=C\C[C@H](O)/C=C/C=C/C=C/[C@H](O)C/C=C\C/C=C\CCC(=O)O [Compound III, 10R,17S-dihydroxy-docosa-4Z,7Z,11E,13E,15E,19Z-hexaenoic-acid]
- effect on LTB4-induced PMN transmigration (in words) [1]: possesses little bioactivity in vitro or in vivo
- effect on LTB4-induced PMN transmigration (in words) ([1]; listed as 415-trans-PD1): essentially inactive
- effect on LTB4-induced PMN transmigration (in words) ([1]; listed as Δ15-trans isomer of PD1): did not block PMN transmigration in vitro
- rank order of potency (FVB male mice; 0.1 ng dose): Compound VI>>PD1>10S,17S-DT (the double dioxygenation product)>the Δ15-trans-PD1>>Compound V
- activity on PMN infiltration (in words) (FVB male mice; 1 ng/mouse dose): substantially less potent
- rank order of potency (FVB male mice; 1-10 ng dose): PD1≈PD1 methyl ester>>Δ15-trans PD1>10S,17S-diHDHA (isomer I)
- anti-inflammatory potency in vivo, PMN infiltration (in words) (FVB male mice): possesses little bioactivity in vitro or in vivo

Compound: CC/C=C\C[C@H](O)/C=C/C=C\C=C\[C@@H](O)C/C=C\C/C=C\CCC(=O)O [Compound I, 10S,17S-dihydroxy-docosa-4Z,7Z,11E,13Z,15E,19Z-hexaenoic acid]
- rank order of potency (FVB male mice; 0.1 ng dose): Compound VI>>PD1>10S,17S-DT (the double dioxygenation product)>the Δ15-trans-PD1>>Compound V
- activity on PMN infiltration (in words) (FVB male mice; 0.1 ng dose, compared to PD1): not active
- activity on PMN infiltration (in words) (FVB male mice; 1 ng/mouse dose): did display some activity
- rank order of potency (FVB male mice; 1-10 ng dose): PD1≈PD1 methyl ester>>Δ15-trans PD1>10S,17S-diHDHA (isomer I)
- anti-inflammatory potency in vivo, PMN infiltration (in words) (FVB male mice): nor did it carry potent actions; also recorded: substantially less potent; also recorded: PD1 (Compound II)>>10S,17S-diHDHA (Compound I); also recorded: possesses some anti-inflammatory activity in vivo, albeit proved to be much less potent than natural or synthetic PD1
- activity on PMN infiltration at higher doses / dose dependence (in words) (FVB male mice): blocked PMN infiltration, but it was less potent than PD1; also recorded: did not increase with higher doses in a statistically significant fashion
